Experimental findings from the NIST ThermoML archive (doi:10.1021/je049913p) are described below.

Molecules are shown by their SMILES. ± gives the expanded uncertainty stated by the source.

The conditions of series [1]: Crystal; Adiabatic calorimetry.
Series [2] is described as follows: Molar enthalpy of transition or fusion. The following applies: Crystal; Adiabatic calorimetry.

In the case of `[Bi]` [bismuth], the Triple point temperature in series [1] was 544.56 ± 0.005 K. For the same compound, the “Molar enthalpy of transition or fusion” value in series [2] is 11.11 ± 0.017 kJ/mol.
